Assay results published in publication PMC10428205, “Cytotoxicity of Ruthenium(II) Arene Complexes Containing Functionalized Ferrocenyl β-Diketonate Ligands” (Organometallics, 2023).
“And” between values parts separate entries of the source, which are not always exact repeats. Identical values can stand only once. Like-named read-outs stand apart in the source and are kept apart here.

Columns and labels:
MIA PaCa-2 [1] = format: cell-based; conditions: for Selectivity index (SI), IC50 ARPE-19 / IC50 MIA PaCa-2: 96 h, * = minimum value as at least one IC50 > 100; for IC50: 96 h MTT, normoxic, ± SD, read-out: IC50 against MIA PaCa-2
Procedure: (§1) LogP = Log ( [C]final ) Eqn1
(§2) 96 h Chemosensitivity Studies
(§3) In vitro chemosensitivity tests were performed at both the University of Huddersfield and the Institute of Cancer Therapeutics, Bradford, in a sterile Class II Biological Safety Cabinet fitted with a HEPA filtered laminar airflow.
Cellular assays were conducted against human pancreatic carcinoma (MIA PaCa-2), human colorectal carcinoma p53-wildtype (HCT116 p53+/+), and human non-cancerous epithelial retinal cells (ARPE-19). […]
were obtained from the American Type Culture Collection and provided by the University of Huddersfield. All cell lines were routinely maintained as monolayer cultures in appropriate complete medium and maintained in either […]
T-25 or T-75 flasks at 37 °C and 5% CO2.
10% foetal calf serum. All medium was supplemented with sodium pyruvate (1 mM) and L-glutamine (2 mM), and prior to chemosensitivity studies, cell monolayers were passaged using Trypsin-EDTA and diluted to a […]
cells/mL cell suspension was added to each well and incubated for 24 h at 37 °C and 5% CO2. After 24 h, 100 mL of drug dilutions (fresh 100 mM stock solutions in DMSO) in media were added to the plates and then incubated for a further 96 h at 37°C and 5% CO2 (48 h + 48 h recovery period were used for the shorter exposures with MIA PaCa-2 cells only). After 96 h, 20 mL MTT (3-(4,5-dimethylthiazol-2-yl)-2,5-diphenyltetrazolium bromide, 5 mg/mL) was added to each well and incubated for 3 h at 37 °C and 5% CO2. All solutions were then removed from the 96-well plates via pipette and […] of DMSO added to each well to dissolve the purple formazan […]
FC spectrophotometer microplate reader. Using the blank and 100% cell controls, the % cell viability was determined [(abs. of compound containing wells – abs. media wells)/(abs. 100% cell suspension well control)] and from this the % cell death (100%- % cell viability) was calculated. On a logarithmic scale, the percentage cell death was plotted against the concentration of compound, and from this the half maximal inhibitory concentration (IC50) value was determined. Each of the experiments were performed in triplicate with mean values being stated as the IC50 ± Standard Deviation (SD). […]

ARPE-19 = assay: 96 h MTT chemosensitivity assay, normal cells; format: cell-based, human; conditions: normal retinal epithelial cells, ± SD, read-out: IC50 against ARPE-19
Procedure: as §1, §2, §3
(§4) Cellular assays were conducted against human pancreatic carcinoma (MIA PaCa-2), human colorectal carcinoma p53-wildtype (HCT116 p53+/+), and human non-cancerous epithelial retinal cells (ARPE-19). The ARPE-19 cells were obtained from the American Type Culture Collection and provided by the University of Huddersfield. All cell lines were routinely maintained as monolayer cultures in appropriate complete medium and maintained in either T-25 or T-75 flasks at 37 °C and 5% CO2. MIA PaCa-2 and ARPE-19 cells were cultured in high glucose DMEM-F12 medium containing 10% foetal calf serum, and HCT116 p53+/+ was cultured in RPMI 1640 supplemented with 10% foetal calf serum. All medium was supplemented with sodium pyruvate (1 mM) and L-glutamine (2 mM), and prior to chemosensitivity studies, cell monolayers were passaged using Trypsin-EDTA and diluted to a concentration of 1 x 10^4 cells/mL. All assays were conducted using 96-well plates, in which […] of the 1 x 10^4 cells/mL cell suspension was added to each well and incubated for 24 h at 37 °C and 5% CO2. […] After mixing well, the absorbance of each well was measured at 540 nm using a ThermoFisher Multiskan FC spectrophotometer microplate reader. Using the blank and 100% cell controls, the % cell viability was determined [(abs. of compound containing wells – abs. media wells)/(abs. 100% cell suspension well control)] and from this the % cell death (100%- % cell viability) was calculated. On a logarithmic scale, the percentage cell death was plotted against the concentration of compound, and from this the half maximal inhibitory concentration (IC50) value was determined. […]

HCT116 p53+/+ = assay: 96 h MTT chemosensitivity assay; format: cell-based, human; conditions: for Selectivity index (SI), IC50 ARPE-19 / IC50 HCT116 p53+/+: 96 h, * = minimum value as at least one IC50 > 100; for IC50: 96 h MTT, ± SD, read-out: IC50 against HCT116 p53+/+
Procedure: as §1, §2, §3
Cellular assays were conducted against human pancreatic carcinoma (MIA PaCa-2), human colorectal carcinoma p53-wildtype (HCT116 p53+/+), and human non-cancerous epithelial retinal cells (ARPE-19). The ARPE-19 cells were obtained from the American Type Culture Collection and provided by the University of Huddersfield. All cell lines were routinely maintained as monolayer cultures in appropriate complete medium and maintained in either T-25 or T-75 flasks at 37 °C and 5% CO2. MIA PaCa-2 and ARPE-19 cells were cultured in high glucose DMEM-F12 medium containing 10% foetal calf serum, and HCT116 p53+/+ was cultured in RPMI 1640 supplemented with 10% foetal calf serum. All medium was supplemented with sodium pyruvate (1 mM) and L-glutamine (2 mM), and prior to chemosensitivity studies, cell monolayers were passaged using Trypsin-EDTA and diluted to a concentration of 1 x 10^4 cells/mL. All assays were conducted using 96-well plates, in which […] of the 1 x 10^4 cells/mL cell suspension was added to each well and incubated for 24 h at 37 °C and 5% CO2. After 24 h, 100 mL of drug dilutions (fresh 100 mM stock solutions in DMSO) in media were added to the plates and then incubated for a further 96 h at 37°C and 5% CO2 (48 h + 48 h recovery period were used for the shorter exposures with MIA PaCa-2 cells only). After 96 h, 20 mL MTT (3-(4,5-dimethylthiazol-2-yl)-2,5-diphenyltetrazolium bromide, 5 mg/mL) was added to each well and incubated for 3 h at 37 °C and 5% CO2. All solutions were then removed from the 96-well plates via pipette and […] of DMSO added to each well to dissolve the purple formazan crystals. After mixing well, the absorbance of each well was measured at 540 nm using a ThermoFisher Multiskan FC spectrophotometer microplate reader. Using the blank and 100% cell controls, the % cell viability was determined [(abs. of compound containing wells – abs. media wells)/(abs. 100% cell suspension well control)] and from this the % cell death (100%- % cell viability) was calculated. On a logarithmic scale, the percentage cell death was plotted against the concentration of compound, and from this the half maximal inhibitory concentration (IC50) value was determined. Each of the experiments were performed in triplicate with mean values being stated as the IC50 ± Standard Deviation (SD). […]
(§5) All assays were conducted in triplicate.

MIA PaCa-2 [2] = assay: 24 and 48 h chemosensitivity (MTT, with recovery period); format: cell-based, human
Procedure: as §1, §2, §3
Cellular assays were conducted against human pancreatic carcinoma (MIA PaCa-2), human colorectal carcinoma p53-wildtype (HCT116 p53+/+), and human non-cancerous epithelial retinal cells (ARPE-19). The ARPE-19 cells were obtained from the American Type Culture Collection and provided by the University of Huddersfield. All cell lines were routinely maintained as monolayer cultures in appropriate complete medium and maintained in either T-25 or T-75 flasks at 37 °C and 5% CO2. MIA PaCa-2 and ARPE-19 cells were cultured in high glucose DMEM-F12 medium containing 10% foetal calf serum, and HCT116 p53+/+ was cultured in RPMI 1640 supplemented with 10% foetal calf serum. All medium was supplemented with sodium pyruvate (1 mM) and L-glutamine (2 mM), and prior to chemosensitivity studies, cell monolayers were passaged using Trypsin-EDTA and diluted to a concentration of 1 x 10^4 cells/mL. All assays were conducted using 96-well plates, in which […] of the 1 x 10^4 cells/mL cell suspension was added to each well and incubated for 24 h at 37 °C and 5% CO2. After 24 h, 100 mL of drug dilutions (fresh 100 mM stock solutions in DMSO) in media were added to the plates and then incubated for a further 96 h at 37°C and 5% CO2 (48 h + 48 h recovery period were used for the shorter exposures with MIA PaCa-2 cells only). After 96 h, 20 mL MTT (3-(4,5-dimethylthiazol-2-yl)-2,5-diphenyltetrazolium bromide, 5 mg/mL) was added to each well and incubated for 3 h at 37 °C and 5% CO2. All solutions were then removed from the 96-well plates via pipette and […] of DMSO added to each well to dissolve the purple formazan crystals. After mixing well, the absorbance of each well was measured at 540 nm using a ThermoFisher Multiskan FC spectrophotometer microplate reader. Using the blank and 100% cell controls, the % cell viability was determined [(abs. of compound containing wells – abs. media wells)/(abs. 100% cell suspension well control)] and from this the % cell death (100%- % cell viability) was calculated. On a logarithmic scale, the percentage cell death was plotted against the concentration of compound, and from this the half maximal inhibitory concentration (IC50) value was determined. Each of the experiments were performed in triplicate with mean values being stated as the IC50 ± Standard Deviation (SD).
24 and 48 h Chemosensitivity Studies
The same experimental protocol described for the 96 h MTT assay was used, and the MIA PaCa-2 cells were incubated for either 24 or 48 h, with a 72 or 48 h recovery period respectively. […]
as §5

MIA PaCa-2 [3] = assay: Chemosensitivity under hypoxic conditions (0.1% O2, 96 h MTT); format: cell-based, human; conditions: MIA PaCa-2, 0.1% O2, 96 h MTT
Procedure: as §1, §2, §3, §4

MIA PaCa-2 [4] = conditions: read-out: IC50 against MIA PaCa-2 (previously reported analogue); cited from earlier work

Compound: N.N.O=C([O-])C1(C(=O)[O-])CCC1.[Pt+2] [CARB, carboplatin, reference compound]
- Selectivity index (SI), IC50 ARPE-19 / IC50 MIA PaCa-2 (MIA PaCa-2 [1]): 2.2
- IC50 (MIA PaCa-2 [1]): 36 ± 3 µM
- IC50 (ARPE-19): 77 ± 10 µM
- Selectivity index (SI), IC50 ARPE-19 / IC50 HCT116 p53+/+ (HCT116 p53+/+): 2.4
- IC50 (HCT116 p53+/+): 32 ± 11 µM

Compound: O=C(C=C(O)c1ccco1)[c-]1cccc1.[Fe+2].c1cc[cH-]c1 [Complex L4]
- IC50 (MIA PaCa-2 [2]; MIA PaCa-2, 24 h exposure + 72 h recovery, read-out: IC50 values ± SD, 24 h): > 100 µM
- IC50 (MIA PaCa-2 [2]; MIA PaCa-2, 48 h exposure + 48 h recovery, read-out: IC50 values ± SD, 48 h): 43 ± 1 µM
- E0′ (Fc*/Fc*+) (Cyclic voltammetry; 0.1 M TBAPF6 in acetonitrile, vs SCE, Fc/Fc+ = 0.40 V internal standard): 0.63 V
- EP Red (Cyclic voltammetry; irreversible reduction, vs SCE): –1.70 V
- E0’ (Fc*/Fc*+) at 0.05 V/s (Cyclic voltammetry; scan speed 0.05 V/s): 0.64 V
- E0’ (Fc*/Fc*+) at 0.10 V/s (Cyclic voltammetry; scan speed 0.10 V/s): 0.63 V
- E0’ (Fc*/Fc*+) at 0.25 V/s (Cyclic voltammetry; scan speed 0.25 V/s): 0.63 V
- IC50 (MIA PaCa-2 [1]): 42.1 ± 0.8 µM

Compound: O=C1[O][Pt]2([NH][C@@H]3CCCC[C@H]3[NH]2)[O]C1=O [OXA, oxaliplatin, reference compound]
- Selectivity index (SI), IC50 ARPE-19 / IC50 MIA PaCa-2 (MIA PaCa-2 [1]): 0.5
- IC50 (MIA PaCa-2 [1]): 6 ± 1 µM
- IC50 (ARPE-19): 3 µM and 6 µM
- IC50 under hypoxic conditions (MIA PaCa-2 [3]): decrease in cytotoxicity
- Selectivity index (SI), IC50 ARPE-19 / IC50 HCT116 p53+/+ (HCT116 p53+/+): 3.2
- IC50 (HCT116 p53+/+): 0.9 ± 0.1 µM

Compound: [(bpy)2(Fc-acac)Ru][PF6] [Figure 1F]
- IC50 (MIA PaCa-2 [4]): 110 ± 10 nM
